Where a chain is given by its changes, count along the chain named. Read-outs that look alike come from different tables or passages of the source.
What was measured:
M1 receptor = target: T1, M1 receptor (Rattus norvegicus, UniProt P08482); assay: M1 PAM assay (FLIPR intracellular calcium), rat; assay type: cell-based
T1 construct: expressed in transfected cells
T1 sequence (P08482 1-460): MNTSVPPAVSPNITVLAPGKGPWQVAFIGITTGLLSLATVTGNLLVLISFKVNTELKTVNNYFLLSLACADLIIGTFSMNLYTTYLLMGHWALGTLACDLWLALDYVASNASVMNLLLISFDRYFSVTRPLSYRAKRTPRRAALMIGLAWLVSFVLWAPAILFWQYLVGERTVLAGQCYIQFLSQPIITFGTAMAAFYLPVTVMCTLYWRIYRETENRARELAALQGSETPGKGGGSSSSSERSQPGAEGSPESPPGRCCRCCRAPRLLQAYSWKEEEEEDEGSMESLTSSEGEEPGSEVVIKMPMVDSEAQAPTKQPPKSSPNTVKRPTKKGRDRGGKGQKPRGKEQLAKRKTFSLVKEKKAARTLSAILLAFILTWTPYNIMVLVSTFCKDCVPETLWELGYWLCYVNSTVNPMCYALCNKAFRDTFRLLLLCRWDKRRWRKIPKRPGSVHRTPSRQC

human M1 = target: T2, human M1 (Homo sapiens, UniProt P11229); assay: M1 PAM assay (FLIPR intracellular calcium, CHO human M1); assay type: cell-based
T2 construct: expressed in transfected cells; host or cells: CHO cells
T2 sequence (P11229 1-460): T1 sequence (P08482 1-460) with V5A, S254T, S309P, K320R, G337A, V413I
Experimental: The assay study the effect of several concentrations of test compounds on basal or acetylcholine-stimulated Ca^2+ levels using FLIPR. CHO human M1 are plated the day before the experiments at 2×10^5 cells/ml in PDL BioCoat 96 well black/clear plate (Becton 35 4640). The cells are grown at 37° C. and 5% CO2 in the following medium: F12 Nut Mix (Gibco 21765), 10% FCS heat inactivated (GIBCO 16000-044), 1% Pen Strep (Gibco, 15140) and 200 μg/ml Geneticin (Gibco 11811). On the day of the experiment, the medium was removed and replaced by 100 μl of dye loading buffer containing Hanks Balanced Salt solution (HBSS, 14065-049, Gibco) with 20 mM HEPES (Gibco 15630-056), 2 mM Probenicid (Sigma P8761), […] (Molecular Probes F-14202), 10% Pluronic acid Molecular Probes P-3000) pH=7.4 and incubated at 37° C. After 60 minutes extracellular dye was removed and the cells were washed five times with FLIPR buffer containing HBSS (Gibco 14065-049) with 20 mM HEPES (Gibco, 15630-056), 2 mM Probenicid (Sigma P8761) pre-warmed at 37° C. using and Ebml cell washer leaving 100 μl of FLIPR buffer in each well. The cell plate and the diluted compounds (1% DMSO final concentration) are placed on the platform of the FLIPR and the door closed. A signal test to check background fluorescence and basal fluorescence signal is performed. Laser intensity is adjusted if necessary. Two minutes preincubation with the diluted test compounds is provide to determine any agonist activity on the M1 receptor by comparison to 30 nM Acetylcholine control. In order to determine any modulator activity the diluted compounds were added to cells and after two minutes preincubation, the EC20 of acetylcholine is added followed by another two minutes preincubation before the measurement of intracellular Ca^2+ with a FLIPR (Molecular Devices).

[1] = human M1 in CHO cells, modulator activity with EC20 of acetylcholine, FLIPR Ca2+, read-out: EC50 h PAM

SMILES	EC50 (M1 receptor) [nM]	EC50 (human M1) [nM]	EC50 (human M1; [1]) [nM]
Cn1cc(-c2ccc(Cn3cc(C(=O)N[C@H]4CCOC[C@@H]4O)c4ncccc43)c(F)c2)cn1 (racemic) [Example 4, 1-(2-fluoro-4-(1-methyl-1H-pyrazol-4-yl)benzyl)-N-((3RS,4SR)-3-hydroxytetrahydro-2H-pyran-4-yl)-1H-pyrrolo[3,2-b]pyridine-3-carboxamide]	58.7	28.6	–
COCC(O)CNC(=O)c1cn(Cc2ccc(-c3cnn(C)c3)cc2F)c2cccnc12 (racemic) [Example 7, rac-1-[2-Fluoro-4-(1-methyl-1H-pyrazol-4-yl)-benzyl]-1H-pyrrolo[3,2-b]pyridine-3-carboxylic acid (2-hydroxy-3-methoxy-propyl)-amide]	–	–	232
Cn1cc(-c2ccc(Cn3cc(C(=O)N[C@H]4CCCC[C@H]4O)c4ncccc43)c(F)c2)cn1 (racemic) [Example 37]	123	162	–
Cn1cc(-c2ccc(Cn3cc(C(=O)N[C@H]4CCCC[C@]4(C)O)c4ncccc43)c(F)c2)cn1 (racemic) [Example 39, 1-(2-fluoro-4-(1-methyl-1H-pyrazol-4-yl)benzyl)-N-((1SR,2SR)-2-hydroxy-2-methylcyclohexyl)-1H-pyrrolo[3,2-b]pyridine-3-carboxamide]	264	177	–
Cn1cc(-c2ccc(Cn3cc(C(=O)N[C@H]4CCCC[C@@]4(C)O)c4ncccc43)c(F)c2)cn1 (racemic) [Example 40, 1-(2-fluoro-4-(1-methyl-1H-pyrazol-4-yl)benzyl)-N-((1SR,2RS)-2-hydroxy-2-methylcyclohexyl)-1H-pyrrolo[3,2-b]pyridine-3-carboxamide]	63.2	47.9	–
Cn1cc(-c2ccc(Cn3cc(C(=O)N[C@H]4CCOC[C@@H]4O)c4ncccc43)cn2)cn1 (racemic) [Example 57, N-((3RS,4SR)-3-hydroxytetrahydro-2H-pyran-4-yl)-1-((6-(1-methyl-1H-pyrazol-4-yl)pyridin-3-yl)methyl)-1H-pyrrolo[3,2-b]pyridine-3-carboxamide]	133	143	–
C[C@@H](O)CNC(=O)c1cn(Cc2ccc(-c3cnn(C)c3)cc2F)c2cccnc12 [Example 9]	–	–	459
C[C@H](O)CNC(=O)c1cn(Cc2ccc(-c3cnn(C)c3)cc2F)c2cccnc12 [Example 10]	–	–	477
Cn1cc(-c2ccc(Cn3cc(C(=O)NC[C@@H](O)CO)c4ncccc43)c(F)c2)cn1 [Example 15, 1-[2-Fluoro-4-(1-methyl-1H-pyrazol-4-yl)-benzyl]-1H-pyrrolo[3,2-b]pyridine-3-carboxylic acid ((R)-2,3-dihydroxy-propyl)-amide]	–	–	333
Cn1cc(-c2ccc(Cn3cc(C(=O)N[C@@H]4CCC[C@H]4O)c4ncccc43)c(F)c2)cn1 [Example 16, 1-[2-Fluoro-4-(1-methyl-1H-pyrazol-4-yl)-benzyl]-1H-pyrrolo[3,2-b]pyridine-3-carboxylic acid ((1R,2R)-2-hydroxy-cyclopentyl)-amide]	–	397	–
CC(C)[C@H](CO)NC(=O)c1cn(Cc2ccc(-c3cnn(C)c3)cc2F)c2cccnc12 [Example 21, 1-[2-Fluoro-4-(1-methyl-1H-pyrazol-4-yl)-benzyl]-1H-pyrrolo[3,2-b]pyridine-3-carboxylic acid ((R)-1-hydroxymethyl-2-methyl-propyl)-amide]	–	201	–
CCC[C@@H](CO)NC(=O)c1cn(Cc2ccc(-c3cnn(C)c3)cc2F)c2cccnc12 [Example 23, 1-[2-Fluoro-4-(1-methyl-1H-pyrazol-4-yl)-benzyl]-1H-pyrrolo[3,2-b]pyridine-3-carboxylic acid ((S)-1-hydroxymethyl-butyl)-amide]	–	205	–
CC(C)C[C@@H](CO)NC(=O)c1cn(Cc2ccc(-c3cnn(C)c3)cc2F)c2cccnc12 [Example 25, 1-[2-Fluoro-4-(1-methyl-1H-pyrazol-4-yl)-benzyl]-1H-pyrrolo[3,2-b]pyridine-3-carboxylic acid ((S)-1-hydroxymethyl-3-methyl-butyl)-amide]	–	–	233
Cn1cc(-c2ccc(Cn3cc(C(=O)Nc4ccccc4CO)c4ncccc43)c(F)c2)cn1 [Example 29, 1-[2-Fluoro-4-(1-methyl-1H-pyrazol-4-yl)-benzyl]-1H-pyrrolo[3,2-b]pyridine-3-carboxylic acid (2-hydroxymethyl-phenyl)-amide]	–	–	298
Cn1cc(-c2ccc(Cn3cc(C(=O)NCC(O)c4ccccc4)c4ncccc43)c(F)c2)cn1 (stereo not shown) [Example 31, 1-[2-Fluoro-4-(1-methyl-1H-pyrazol-4-yl)-benzyl]-1H-pyrrolo[3,2-b]pyridine-3-carboxylic acid (2-hydroxy-2-phenyl-ethyl)-amide]	–	–	429
Cc1ccc(NC(=O)c2cn(Cc3ccc(-c4cnn(C)c4)cc3F)c3cccnc23)c(CO)c1 [Example 33, 1-[2-Fluoro-4-(1-methyl-1H-pyrazol-4-yl)-benzyl]-1H-pyrrolo[3,2-b]pyridine-3-carboxylic acid (2-hydroxymethyl-4-methyl-phenyl)-amide]	–	–	282
Cc1cccnc1NC(=O)c1cn(Cc2ccc(-c3cnn(C)c3)cc2F)c2cccnc12 [Example 35, 1-[2-Fluoro-4-(1-methyl-1H-pyrazol-4-yl)-benzyl]-1H-pyrrolo[3,2-b]pyridine-3-carboxylic acid (3-methyl-pyridin-2-yl)-amide]	–	–	320
CO[C@H]1CCCC[C@@H]1NC(=O)c1cn(Cc2ccc(-c3cnn(C)c3)cc2F)c2cccnc12 [Example 38, 1-[2-Fluoro-4-(1-methyl-1H-pyrazol-4-yl)-benzyl]-1H-pyrrolo[3,2-b]pyridine-3-carboxylic acid ((1S,2S)-2-methoxy-cyclohexyl)-amide]	–	–	369
Cn1cc(-c2ccc(Cn3cc(C(=O)N[C@@H]4COCC[C@H]4O)c4ncccc43)c(F)c2)cn1 [Example 42, 1-(2-fluoro-4-(1-methyl-1H-pyrazol-4-yl)benzyl)-N-((3R,4R)-4-hydroxytetrahydro-2H-pyran-3-yl)-1H-pyrrolo[3,2-b]pyridine-3-carboxamide]	–	487	–
O=C(N[C@H]1CCCC[C@@H]1O)c1cn(Cc2ccc(Br)cc2)c2cccnc12 [Example 50, 1-(4-bromobenzyl)-N-((1S,2S)-2-hydroxycyclohexyl)-1H-pyrrolo[3,2-b]pyridine-3-carboxamide]	–	–	319
Cn1cc(-c2cccc(Cn3cc(C(=O)N[C@H]4CCCC[C@@H]4O)c4ncccc43)c2)cn1 [Example 51, N-((1S,2S)-2-hydroxycyclohexyl)-1-(3-(1-methyl-1H-pyrazol-4-yl)benzyl)-1H-pyrrolo[3,2-b]pyridine-3-carboxamide]	–	443	–
N#Cc1ccc(Cn2cc(C(=O)N[C@H]3CCCC[C@@H]3O)c3ncccc32)c(F)c1 [Example 53, 1-(4-cyano-2-fluorobenzyl)-N-((1S,2S)-2-hydroxycyclohexyl)-1H-pyrrolo[3,2-b]pyridine-3-carboxamide]	–	321	–
O=C(N[C@H]1CCCC[C@@H]1O)c1cn(Cc2ccc(Cl)cc2)c2cccnc12 [Example 54, 1-(4-chlorobenzyl)-N-((1S,2S)-2-hydroxycyclohexyl)-1H-pyrrolo[3,2-b]pyridine-3-carboxamide]	–	264	–

From patent US9932335B2 (priority 2013, dated 2018)
